Source: patent US12383545B1, “Treatment of migraine” (priority 2018, dated 2025)

System: participants with episodic migraine
Assay: Study B: AIM-D PDA and PI domain scores over 52 weeks
Assay type: in vivo, human
Conditions: atogepant 60 mg, mITT Population
Excerpt: The Activity in Migraine Diary (AIM-D) evaluates the impact of migraine on the performance of daily activities and physical impairment using an electronic daily diary. In particular, the AIM-D is comprised of two domains that evaluate Performance of Daily Activities (PDA) and Physical Impairment (PI). Assessed items for the AIM-D PDA domain include household chores, errands, leisure activities at home, social or leisure activities outside the home, strenuous physical activities, concentration, and thinking clearly. Assessed items for the AIM-D PI Domain include walking, moving one's body, bending forward, and moving one's head. Response options for each item range from “not difficult at all” to “I could not do it at all” on a 6-point rating scale. The AIM-D domain scores are scaled from 0-100, with higher scores indicating greater impact of migraine, and reductions from baseline in scores indicate improvement. See Cala et al., The Activity Impairment in Migraine-Diary (AIM-D): A Novel Migraine-Specific Patient-Reported Outcome Measure to Assess Functioning Based on Activity Impairment in Episodic and Chronic Migraine Patients, MTIS2018-005 (Sep. 5, 2018).
The negative change scores with confidence intervals that exclude 0 indicate a significant reduction in impairment due to migraine in PDA and PI.
Change scores with confidence intervals excluding zero were present at each time point assessed, indicating significant reduction in impairment due to migraine during the 52-week trial.

C[C@@H]1[C@H](c2c(F)ccc(F)c2F)C[C@H](NC(=O)c2cnc3c(c2)C[C@@]2(C3)C(=O)Nc3ncccc32)C(=O)N1CC(F)(F)F [atogepant]
Change from Baseline in AIM-D Monthly PDA Domain Score, LS Mean Δ from baseline (Weeks 1-4, MMRM): −7.61
Change from Baseline in AIM-D Monthly PI Domain Score, LS Mean Δ from baseline (Weeks 1-4, MMRM): −5.56
Change from Baseline in AIM-D Monthly PDA Domain Score, LS Mean Δ from baseline (Weeks 5-8): −8.16
Change from Baseline in AIM-D Monthly PI Domain Score, LS Mean Δ from baseline (Weeks 5-8): −5.82
Change from Baseline in AIM-D Monthly PDA Domain Score, LS Mean Δ from baseline (Weeks 9-12): −8.53
Change from Baseline in AIM-D Monthly PI Domain Score, LS Mean Δ from baseline (Weeks 9-12): −6.13
Change from Baseline in AIM-D Monthly PDA Domain Score, LS Mean Δ from baseline (Weeks 13-16): −8.66
Change from Baseline in AIM-D Monthly PI Domain Score, LS Mean Δ from baseline (Weeks 13-16): −6.22
Change from Baseline in AIM-D Monthly PDA Domain Score, LS Mean Δ from baseline (Weeks 17-20): −9.02
Change from Baseline in AIM-D Monthly PI Domain Score, LS Mean Δ from baseline (Weeks 17-20): −6.38
Change from Baseline in AIM-D Monthly PDA Domain Score, LS Mean Δ from baseline (Weeks 21-24): −9.11
Change from Baseline in AIM-D Monthly PI Domain Score, LS Mean Δ from baseline (Weeks 21-24): −6.43
Change from Baseline in AIM-D Monthly PDA Domain Score, LS Mean Δ from baseline (Weeks 25-28): −9.16
Change from Baseline in AIM-D Monthly PI Domain Score, LS Mean Δ from baseline (Weeks 25-28): −6.40
Change from Baseline in AIM-D Monthly PDA Domain Score, LS Mean Δ from baseline (Weeks 29-32): −9.22
Change from Baseline in AIM-D Monthly PI Domain Score, LS Mean Δ from baseline (Weeks 29-32): −6.51
Change from Baseline in AIM-D Monthly PDA Domain Score, LS Mean Δ from baseline (Weeks 33-36): −9.61
Change from Baseline in AIM-D Monthly PI Domain Score, LS Mean Δ from baseline (Weeks 33-36): −6.94
Change from Baseline in AIM-D Monthly PDA Domain Score, LS Mean Δ from baseline (Weeks 37-40): −9.61
Change from Baseline in AIM-D Monthly PI Domain Score, LS Mean Δ from baseline (Weeks 37-40): −6.93
Change from Baseline in AIM-D Monthly PDA Domain Score, LS Mean Δ from baseline (Weeks 41-44): −9.77
Change from Baseline in AIM-D Monthly PI Domain Score, LS Mean Δ from baseline (Weeks 41-44): −7.01
Change from Baseline in AIM-D Monthly PDA Domain Score, LS Mean Δ from baseline (Weeks 45-48): −9.79
Change from Baseline in AIM-D Monthly PI Domain Score, LS Mean Δ from baseline (Weeks 45-48): −7.02
Change from Baseline in AIM-D Monthly PDA Domain Score, LS Mean Δ from baseline (Weeks 49-52, MMRM): −10.17
Change from Baseline in AIM-D Monthly PI Domain Score, LS Mean Δ from baseline (Weeks 49-52, MMRM): −7.20
